From US20250059198A1, “BRM DEGRADING COMPOUNDS AND ASSOCIATED METHODS OF USE” (Arvinas Operations, Inc., priority 2021, published 2025)

Target: T1, BRM (Homo sapiens, UniProt P51531)
T1 construct: Western Blot Screen of BRM Degradation in SW1573 Cells; endogenous in cells; host or cells: SW1573 cells
Test: BRM degradation (Dmax and DC50) in SW1573 cells, Western blot screen / In-Cell Western screen
Type: cell-based
Conditions: overnight (18-20 hours) treatment; for Dmax: read-out: Dmax (%)** (% degraded)
Summary of the method: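 Dmax and DC50 were derived from BRM levels normalised to an alpha-tubulin control, measured by chemiluminescent Western blotting of lysates or by PFA-fixed In-Cell Western on LI-COR Odyssey. SW1573 cells received compound overnight (18–20 h, 0.1% DMSO final).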

T1 sequence (P51531 whole entry): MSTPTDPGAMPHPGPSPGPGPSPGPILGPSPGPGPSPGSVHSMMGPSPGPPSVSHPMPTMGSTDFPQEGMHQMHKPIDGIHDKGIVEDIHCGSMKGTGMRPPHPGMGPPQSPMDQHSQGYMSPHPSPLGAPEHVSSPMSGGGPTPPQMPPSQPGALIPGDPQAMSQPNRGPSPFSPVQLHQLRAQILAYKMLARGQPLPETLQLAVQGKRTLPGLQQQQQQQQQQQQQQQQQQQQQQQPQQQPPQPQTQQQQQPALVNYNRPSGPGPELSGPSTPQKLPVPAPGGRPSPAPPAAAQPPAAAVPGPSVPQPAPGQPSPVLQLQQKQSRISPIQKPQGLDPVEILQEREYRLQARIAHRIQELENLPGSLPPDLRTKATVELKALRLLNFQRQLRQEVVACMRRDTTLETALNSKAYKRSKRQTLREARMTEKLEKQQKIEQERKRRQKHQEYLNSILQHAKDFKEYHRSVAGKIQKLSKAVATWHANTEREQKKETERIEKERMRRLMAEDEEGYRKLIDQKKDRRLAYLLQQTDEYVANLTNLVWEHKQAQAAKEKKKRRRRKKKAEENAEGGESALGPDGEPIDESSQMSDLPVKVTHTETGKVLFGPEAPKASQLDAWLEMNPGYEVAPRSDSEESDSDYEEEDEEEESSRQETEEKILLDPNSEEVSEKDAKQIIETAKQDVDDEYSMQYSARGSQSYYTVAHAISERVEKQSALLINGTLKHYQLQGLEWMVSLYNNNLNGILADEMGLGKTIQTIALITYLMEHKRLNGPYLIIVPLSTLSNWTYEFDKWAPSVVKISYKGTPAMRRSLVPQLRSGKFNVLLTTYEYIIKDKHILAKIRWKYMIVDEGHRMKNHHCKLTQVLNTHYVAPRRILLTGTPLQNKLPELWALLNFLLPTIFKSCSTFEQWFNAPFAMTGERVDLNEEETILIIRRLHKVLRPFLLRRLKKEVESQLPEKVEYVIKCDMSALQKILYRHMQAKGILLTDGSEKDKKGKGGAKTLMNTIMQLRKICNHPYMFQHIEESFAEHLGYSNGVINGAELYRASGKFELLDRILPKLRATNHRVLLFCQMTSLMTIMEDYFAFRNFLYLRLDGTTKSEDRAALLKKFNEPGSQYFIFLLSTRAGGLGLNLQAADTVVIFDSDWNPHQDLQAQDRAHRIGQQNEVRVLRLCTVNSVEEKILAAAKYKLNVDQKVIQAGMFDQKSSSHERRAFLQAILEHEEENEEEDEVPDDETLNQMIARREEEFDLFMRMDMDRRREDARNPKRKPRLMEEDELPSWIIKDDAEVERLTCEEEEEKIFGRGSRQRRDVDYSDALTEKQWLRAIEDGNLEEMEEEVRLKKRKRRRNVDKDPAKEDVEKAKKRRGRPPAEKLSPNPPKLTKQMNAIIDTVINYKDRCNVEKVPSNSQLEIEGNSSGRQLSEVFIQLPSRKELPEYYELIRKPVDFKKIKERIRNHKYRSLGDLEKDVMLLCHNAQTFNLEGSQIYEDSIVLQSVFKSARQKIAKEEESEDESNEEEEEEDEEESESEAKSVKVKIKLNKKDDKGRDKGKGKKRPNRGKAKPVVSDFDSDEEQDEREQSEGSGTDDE

Compound	DC50 [nM]	Dmax [%]
Cc1ncsc1-c1ccc([C@H](C)NC(=O)[C@@H]2C[C@@H](O)CN2C(=O)[C@@H](c2cc(N3CCC(CN4CCC(O[C@H]5C[C@H](N6CCC(C(C)c7cn(-c8cc(-c9ccccc9O)nnc8N)cn7)CC6)C5)CC4)CC3)no2)C(C)C)cc1 (stereo partly drawn) [Compound 85, (2S,4R)-4-hydroxy-N-[(1S)-1-[4-(4-methyl-1,3-thiazol-5-yl)phenyl]ethyl]-1-[(2R)-3-methyl-2-{3-[4-({4-[(1r,3r)-3-[4-(1-{1-[3-amino-6-(2-hydroxyphenyl)pyridazin-4-yl]-1H-imidazol-4-yl}ethyl)piperidin-1-yl]cyclobutoxy]piperidin-1-yl}methyl)piperidin-1-yl]-1,2-oxazol-5-yl}butanoyl]pyrrolidine-2-carboxamide]	≥ 30	–
Cc1ncsc1-c1ccc([C@H](C)NC(=O)[C@@H]2C[C@@H](O)CN2C(=O)[C@@H](c2cc(N3CCC(CN4CCC(O[C@H]5C[C@H](N6CCC([C@@H](C)n7cc(-c8cc(-c9ccccc9O)nnc8N)cn7)CC6)C5)CC4)CC3)no2)C(C)C)cc1 (single isomer, unassigned) [Compound 7]	< 2.5	> 75
Cc1ncsc1-c1ccc([C@H](C)NC(=O)[C@@H]2C[C@@H](O)CN2C(=O)[C@@H](c2cc(N3CCC(CN4CC[C@H](Oc5cc(N6C7CCC6CN(c6cc(-c8ccccc8O)nnc6N)C7)ccn5)[C@@H](F)C4)CC3)no2)C(C)C)cc1 [Compound 60, (2S,4R)-1-[(2R)-2-[3-(4-{[(3S,4S)-4-[(4-{3-[3-amino-6-(2-hydroxyphenyl)pyridazin-4-yl]-3,8-diazabicyclo[3.2.1]octan-8-yl}pyridin-2-yl)oxy]-3-fluoropiperidin-1-yl]methyl}piperidin-1-yl)-1,2-oxazol-5-yl]-3-methylbutanoyl]-4-hydroxy-N-[(1S)-1-[4-(4-methyl-1,3-thiazol-5-yl)phenyl]ethyl]pyrrolidine-2-carboxamide]	< 2.5	> 75
CC(C)[C@H](C(=O)N1C[C@H](O)C[C@H]1C(=O)N[C@@H](C)c1ccc(C#N)cc1)c1cc(N2CCC(OCCN3CCC(O[C@H]4C[C@H](Oc5cc(N6C7CCC6CN(c6cc(-c8ccccc8O)nnc6N)C7)ccn5)C4)CC3)CC2)no1 [Compound 152, (2S,4R)-N-[(1S)-1-(4-cyanophenyl)ethyl]-4-hydroxy-1-[(2S)-3-methyl-2-{3-[4-(2-{4-[(1r,3r)-3-[(4-{3-[3-amino-6-(2-hydroxyphenyl)pyridazin-4-yl]-3,8-diazabicyclo[3.2.1]octan-8-yl}pyridin-2-yl)oxy]cyclobutoxy]piperidin-1-yl}ethoxy)piperidin-1-yl]-1,2-oxazol-5-yl}butanoyl]pyrrolidine-2-carboxamide]	≥ 30	–
Cc1ncsc1-c1ccc([C@H](C)NC(=O)[C@@H]2C[C@@H](O)CN2C(=O)[C@H](c2cc(N3CCC(CN4CCC(O[C@H]5C[C@H](Oc6cc(N7C8CCC7CN(c7cc(-c9ccccc9O)nnc7N)C8)ccn6)C5)CC4)CC3)no2)C(C)C)c(N)c1 [Compound 5, (2S,4R)-N-[(1S)-1-[2-amino-4-(4-methyl-1,3-thiazol-5-yl)phenyl]ethyl]-4-hydroxy-1-[(2S)-3-methyl-2-{3-[4-({4-[(1r,3r)-3-[(4-{3-[3-amino-6-(2-hydroxyphenyl)pyridazin-4-yl]-3,8-diazabicyclo[3.2.1]octan-8-yl}pyridin-2-yl)oxy]cyclobutoxy]piperidin-1-yl}methyl)piperidin-1-yl]-1,2-oxazol-5-yl}butanoyl]pyrrolidine-2-carboxamide]	≥ 30	–
Cc1ncsc1-c1ccc([C@H](C)NC(=O)[C@@H]2C[C@@H](O)CN2C(=O)[C@@H](c2cc(N3CCN(C(=O)N4CCC(O[C@H]5C[C@H](Oc6cc(N7C8CCC7CN(c7cc(-c9ccccc9O)nnc7N)C8)ccn6)C5)CC4)CC3)no2)C(C)C)cc1 [Compound 123, (2S,4R)-4-hydroxy-N-[(1S)-1-[4-(4-methyl-1,3-thiazol-5-yl)phenyl]ethyl]-1-[(2S)-3-methyl-2-[3-(4-{4-[(1r,3r)-3-[(4-{3-[3-amino-6-(2-hydroxyphenyl)pyridazin-4-yl]-3,8-diazabicyclo[3.2.1]octan-8-yl}pyridin-2-yl)oxy]cyclobutoxy]piperidine-1-carbonyl}piperazin-1-yl)-1,2-oxazol-5-yl]butanoyl]pyrrolidine-2-carboxamide]	< 2.5	> 75
Cc1ncsc1-c1ccc([C@H](C)NC(=O)[C@@H]2C[C@@H](O)CN2C(=O)[C@@H](c2cc(N3CCC(CN4CCC5(CC4)CC(N4C[C@H](CN6C7CCC6CN(c6cc(-c8ccccc8O)nnc6N)C7)O[C@H](C)C4)C5)CC3)no2)C(C)C)cc1 [Compound 73, (2S,4R)-1-[(2R)-2-{3-[4-({2-[(2R,6R)-2-({3-[3-amino-6-(2-hydroxyphenyl)pyridazin-4-yl]-3,8-diazabicyclo[3.2.1]octan-8-yl}methyl)-6-methylmorpholin-4-yl]-7-azaspiro[3.5]nonan-7-yl}methyl)piperidin-1-yl]-1,2-oxazol-5-yl}-3-methylbutanoyl]-4-hydroxy-N-[(1S)-1-[4-(4-methyl-1,3-thiazol-5-yl)phenyl]ethyl]pyrrolidine-2-carboxamide]	< 2.5	> 75
Cc1ncsc1-c1ccc([C@H](C)NC(=O)[C@@H]2C[C@@H](O)CN2C(=O)[C@@H](c2cc(N3CCC(O[C@H]4CC[C@H](Oc5cc(N6C7CCC6CN(c6cc(-c8ccccc8O)nnc6N)C7)ccn5)CC4)CC3)no2)C(C)C)cc1 [Compound 136, (2S,4R)-4-hydroxy-N-[(1S)-1-[4-(4-methyl-1,3-thiazol-5-yl)phenyl]ethyl]-1-[(2R)-3-methyl-2-[3-(4-{[(1r,4r)-4-[(4-{3-[3-amino-6-(2-hydroxyphenyl)pyridazin-4-yl]-3,8-diazabicyclo[3.2.1]octan-8-yl}pyridin-2-yl)oxy]cyclohexyl]oxy}piperidin-1-yl)-1,2-oxazol-5-yl]butanoyl]pyrrolidine-2-carboxamide]	< 2.5	> 75
Cc1ncsc1-c1ccc([C@H](C)NC(=O)[C@@H]2C[C@@H](O)CN2C(=O)[C@@H](c2cc(N3CCC(CN4CCC(O[C@H]5C[C@H](N6CCC(F)(CN7C8CCC7CN(c7cc(-c9ccccc9O)nnc7N)C8)CC6)C5)CC4)CC3)no2)C(C)C)cc1 [Compound 27, (2S,4R)-4-hydroxy-N-[(1S)-1-[4-(4-methyl-1,3-thiazol-5-yl)phenyl]ethyl]-1-[(2R)-3-methyl-2-{3-[4-({4-[(1r,3r)-3-[4-({3-[3-amino-6-(2-hydroxyphenyl)pyridazin-4-yl]-3,8-diazabicyclo[3.2.1]octan-8-yl}methyl)-4-fluoropiperidin-1-yl]cyclobutoxy]piperidin-1-yl}methyl)piperidin-1-yl]-1,2-oxazol-5-yl}butanoyl]pyrrolidine-2-carboxamide]	< 2.5	> 75
Cc1ncsc1-c1ccc([C@H](C)NC(=O)[C@@H]2C[C@@H](O)CN2C(=O)[C@H](c2cc(N3C4CCC3CC(CN3CCC(O[C@H]5C[C@H](Oc6cc(N7C8CCC7CN(c7cc(-c9ccccc9O)nnc7N)C8)ccn6)C5)CC3)C4)no2)C(C)C)cc1 (stereo partly drawn) [Compound 18, (2S,4R)-4-hydroxy-N-[(1S)-1-[4-(4-methyl-1,3-thiazol-5-yl)phenyl]ethyl]-1-[(2S)-3-methyl-2-{3-[3-({4-[(1r*,3r*)-3-[(4-{3-[3-amino-6-(2-hydroxyphenyl)pyridazin-4-yl]-3,8-diazabicyclo[3.2.1]octan-8-yl}pyridin-2-yl)oxy]cyclobutoxy]piperidin-1-yl}methyl)-8-azabicyclo[3.2.1]octan-8-yl]-1,2-oxazol-5-yl}butanoyl]pyrrolidine-2-carboxamide]	≥ 30	–
Cc1ncsc1-c1ccc([C@H](C)NC(=O)[C@@H]2C[C@@H](O)CN2C(=O)[C@@H](c2cc(N3CCC(CN4CCC5(CC4)CC(N4CCC[C@](O)(CN6C7CCC6CN(c6cc(-c8ccccc8O)nnc6N)C7)C4)C5)CC3)no2)C(C)C)cc1 [Compound 61, (2S,4R)-1-[(2R)-2-{3-[4-({2-[(3R)-3-({3-[3-amino-6-(2-hydroxyphenyl)pyridazin-4-yl]-3,8-diazabicyclo[3.2.1]octan-8-yl}methyl)-3-hydroxypiperidin-1-yl]-7-azaspiro[3.5]nonan-7-yl}methyl)piperidin-1-yl]-1,2-oxazol-5-yl}-3-methylbutanoyl]-4-hydroxy-N-[(1S)-1-[4-(4-methyl-1,3-thiazol-5-yl)phenyl]ethyl]pyrrolidine-2-carboxamide]	< 2.5	> 75
CC(C)[C@H](C(=O)N1C[C@H](O)C[C@H]1C(=O)N[C@@H](C)c1ccc(C#N)cc1)c1cc(N2CCN(C(=O)N3CCC(O[C@H]4C[C@H](Oc5cc(N6C7CCC6CN(c6cc(-c8ccccc8O)nnc6N)C7)ccn5)C4)CC3)CC2)no1 [Compound 139, (2S,4R)-N-[(1S)-1-(4-cyanophenyl)ethyl]-4-hydroxy-1-[(2S)-3-methyl-2-[3-(4-{4-[(1r,3r)-3-[(4-{3-[3-amino-6-(2-hydroxyphenyl)pyridazin-4-yl]-3,8-diazabicyclo[3.2.1]octan-8-yl}pyridin-2-yl)oxy]cyclobutoxy]piperidine-1-carbonyl}piperazin-1-yl)-1,2-oxazol-5-yl]butanoyl]pyrrolidine-2-carboxamide]	≥ 30	–
Cc1ncsc1-c1ccc([C@H](C)NC(=O)C2C[C@@H](O)CN2C(=O)[C@@H](c2cc(N3CCC(CN4CC[C@H](Oc5cc(N6C7CCC6CN(c6cc(-c8ccccc8O)nnc6N)C7)ccn5)[C@H](F)C4)CC3)no2)C(C)C)cc1 (stereo in doubt) [Compound 50, (2S,4R)-1-[(2R)-2-[3-(4-{[(3R,4S)-4-[(4-{3-[3-amino-6-(2-hydroxyphenyl)pyridazin-4-yl]-3,8-diazabicyclo[3.2.1]octan-8-yl}pyridin-2-yl)oxy]-3-fluoropiperidin-1-yl]methyl}piperidin-1-yl)-1,2-oxazol-5-yl]-3-methylbutanoyl]-4-hydroxy-N-[(1S)-1-[4-(4-methyl-1,3-thiazol-5-yl)phenyl]ethyl]pyrrolidine-2-carboxamide]	< 2.5	> 75
